Results from a melting point compilation (Tetko et al.).

Settings: a range is the spread between reports

Compound	melting point
Cc1cc(C2(c3ccc(O)c(C)c3)OC(=O)c3ccccc32)ccc1O	223 to 224 °C
O=C1OC2(OC=C(c3ccccc3)C2=O)c2ccccc21 (configuration not stated)	154 to 157 °C
COC(=O)c1ccc(Br)cc1	79 to 81 °C
c1ccc2nccnc2c1	28 to 30 °C
CNc1ccccc1C(=O)OC	18 to 19 °C
O=C(c1ccccc1)c1ccccc1O	39 to 40 °C
c1ccc2c3c([nH]c2c1)CCCC3	118 to 120 °C
COc1ccc(I)cc1	50 to 53 °C
NC(=O)c1ccc([N+](=O)[O-])cc1Cl	170 to 172 °C
O=C(O)c1ccc(CBr)cc1	225 to 230 °C
O=C(O)c1ccccc1Cl	139 to 142 °C
Cc1cc(C)cc(C)c1	-45 to -44.7 °C
Clc1ccc(Cl)c(Cl)c1Cl	47 to 47.5 °C
O=C(O)COc1ccc(Cl)cc1Cl	138 to 140 °C
CCC/C=C/C(=O)O	33 to 36.5 °C
CCCC(O)CCC	-42 to -41.2 °C
Nc1cc(Cl)ccc1O	140 to 143 °C
CCCCCCCCCCCCCCCCS	19 to 21 °C
Clc1ccccn1	-46.5 to -46 °C
c1ccc(-c2ccccc2-c2ccccc2)cc1	56 to 57 °C
O=C(c1ccc(Cl)cc1)c1ccccc1Cl	65 to 67 °C
CCn1cc(C(=O)O)c(=O)c2ccc(C)nc21	229 to 230 °C
CC(C)(C)Cl	-26 to -25 °C
c1ccc2c(c1)CCc1ccccc1N2	106 to 107 °C

Compound	melting point
CC(=O)NN	64 to 67 °C
NC(=O)c1ccccc1F	116 to 118 °C
CC1CCC2CC1C2(C)C (configuration not stated)	-53 to -50 °C
CCC(C)OC(C)=O (configuration not stated)	-99 to -98.9 °C
CCCCCCCCCCCCCCCCCC	28 to 28.2 °C
CN(C)C=O	-61 to -60.4 °C
IC(I)I	119 to 122 °C
COC(=O)C(=O)OC	52 to 54.3 °C
O=C(O)CCCCC1SCC2NC(=O)NC21 (configuration not stated)	230 to 232 °C
CCNc1nc(Cl)nc(NCC)n1	226 to 228 °C
CCCCC(=O)OCC	-91.2 to -91 °C
COc1cccc(OC)c1OC	44 to 48.5 °C
CC(C)c1cc(C(C)C)cc(C(C)C)c1	-7.4 to -7 °C
BrCC(Br)c1ccccc1 (configuration not stated)	72 to 75 °C
O=[N+]([O-])c1cccc(C(F)(F)F)c1	-5 to -2.4 °C
COC(=O)C1C(OC(=O)c2ccccc2)CC2CCC1N2C (configuration not stated)	93.5 to 98 °C
COC(=O)c1cccc(I)c1	54 to 54.5 °C
Cc1nc(-c2ccc(-c3nc(C)c(-c4ccccc4)o3)cc2)oc1-c1ccccc1	232 to 234 °C
COC	-142 to -138 °C
O=C(Cc1ccccc1)c1ccccc1	55 to 60 °C
N#CCc1ccc(N)cc1	44 to 46 °C
Cc1ccc(C)n1-c1ccccc1	49.5 to 50 °C
C=C(C)C(C)(C)C	-110 °C
O=C(O)c1cc2ccccc2cc1O	220 to 222 °C

Compound	melting point
O=C1c2ccccc2-c2ccccc21	83 to 84 °C
CC12CCC(C1)C(C)(C)C2=O (configuration not stated)	5 to 6.1 °C
CC1CC2C3CCC4=CC(=O)C=CC4(C)C3(F)C(O)CC2(C)C1(O)C(=O)CO (configuration not stated)	262 to 263 °C
CN(C)c1ccc(C=O)cc1	74 to 75 °C
CC(CC(=O)O)CC(=O)O	86 to 87 °C
CCCCCCCCCCCCCCCCCCCCC	39 to 41 °C
CCc1ccc(C)nc1	-71 to -70.9 °C
Oc1ccc(Cl)c(Cl)c1	66 to 68 °C
CN1CCN(CCCN2c3ccccc3Sc3ccccc32)CC1	52 to 53 °C
CN(C)C(=O)C(c1ccccc1)c1ccccc1	134 to 135 °C
O=C(c1ccccc1)c1cccs1	56 to 57 °C
COc1cc(Cl)c(Cl)c(Cl)c1Cl	84 to 88 °C
O=C(c1ccccc1)c1ccc(Br)cc1	81 to 82.5 °C
O=C1CCC(N2C(=O)c3ccccc3C2=O)C(=O)N1 (configuration not stated)	270 to 275 °C
C1CCCC1	-94 to -93.8 °C
N#C/C=C/c1ccccc1	19 to 22 °C
O=C1CC(c2ccc(O)cc2)Oc2cc(O)cc(O)c21 (configuration not stated)	250 to 251 °C
CCCCCSCCCCC	-51.3 to -51 °C
CSc1ccc(C(=O)O)cc1	194 to 195 °C
CCOC(=O)C(C(=O)OCC)C(=O)OCC	28 to 29 °C
CCOC(=O)c1ccco1	34 to 34.5 °C
O=C(Cl)N(c1ccccc1)c1ccccc1	83 to 84 °C
Nc1ccc(C(=O)c2ccccc2)cc1	122 to 123 °C
CC(C)(O)c1ccccc1	32 to 36 °C

Compound	melting point
C=CC(C)CC (configuration not stated)	-154 to -153 °C
Cc1ccc(C(=O)Cl)cc1	-3 to -2 °C
c1ccc2c(c1)CCC2	-51.4 to -51 °C
O=C1CCCCN1	37 to 39.5 °C
CC(C)[C@@H]1CC[C@@H](C)C[C@H]1O	42 to 44 °C
NCCCCCO	35 to 38.5 °C
CC(C(=O)O)(c1ccccc1)c1ccccc1	173 to 176 °C
Clc1cccc(Br)c1	-22 to -21.5 °C
Clc1ccc(Br)c(Cl)c1	26 to 27 °C
O=Cc1ccco1	-38.1 to -36 °C
COc1cc(C=O)cc(OC)c1O	112 to 113 °C
Oc1ccc(Oc2ccccc2)cc1	80 to 84 °C
O=C(O)Cc1ccccc1	76 to 79 °C
O=Cc1cc([N+](=O)[O-])ccc1O	125 to 129 °C
CCOC(=O)/C=C/C(=O)OCC	0 to 2 °C
Cc1ccc(N)cc1Cl	23 to 26 °C
COc1c(Cl)cc(Cl)cc1Cl	61 to 61.5 °C
Cc1ccc(C(C)C)cc2c(C)ccc1-2	31.5 to 32 °C
Cc1cc(C)c(C)c(O)c1	93.5 to 94 °C
COc1ccccc1N	5 to 6.2 °C
O=P(O)(O)c1ccccc1	161 to 164 °C
O=S(=O)(Cl)c1ccccc1	14.5 to 15 °C
CC1=NNC(=O)C1	221 to 222 °C
Brc1ccc(-c2ccccc2)cc1	90 to 91.5 °C

Compound	melting point
Cc1cc(Br)ccc1Br	5 to 6 °C
O=C(CCC(=O)c1ccccc1)c1ccccc1	144 to 146 °C
Cc1cccc(C)c1O	45.7 to 49 °C
O=P(Oc1ccccc1)(Oc1ccccc1)Oc1ccccc1	50 to 50.5 °C
CCOC(=O)CNc1ccccc1	57 to 58 °C
CC(=O)Nc1c(C)cccc1C	181 to 183 °C
O=C1C(Cl)=CC(=NCl)C=C1Cl	66 to 67 °C
CC=CC=CCO	30.5 to 31 °C
Oc1ccc(N=Nc2ccccc2)cc1	154 to 155 °C
Nc1cccc(N)c1	63 to 65 °C
O=C(O)c1c(F)cc(F)cc1F	141 to 143 °C
c1ccc2c(c1)sc1ccccc12	97 to 99 °C
C=CCC1CCCC1	-111 °C
Fc1ccccc1-c1ccccc1	73.5 to 74 °C
C#CCCO	-63.6 to -63 °C
COc1cc(-c2ccc(N)c(OC)c2)ccc1N	136 to 137 °C
O=[N+]([O-])c1ccc(C=NO)cc1	128 to 130 °C
O=C(O)c1cccc([N+](=O)[O-])c1C(=O)O	210 to 212 °C
CC(=O)c1ccc(O)cc1	107 to 110 °C
CCc1ccccc1Br	-68 to -67.9 °C
CCCCCCCCCCCCC=O	14 to 15 °C
